Measurements from patent US4224326A, “Immunosuppressive agents” (Eli Lilly and Company, priority 1978, dated 1980).
Like-named read-outs stand apart in the source and are kept apart here.

Columns and labels:
GVH reaction = assay: Graft-versus-host (GVH) reaction, spleen weight; format: in vivo, mouse (C57BL spleen cells into C57BL×C3H F1 hybrid)
Description: In this test, parental (C57BL) mouse spleen cells are injected into mice of an F1 hybrid strain (C57BL×C3H). […] As a consequence, the recipient's spleen becomes enlarged. Immunosuppression prevents or reduces this enlargement. Thus, spleen weights provide a measure of the GVH reaction and its reduction under immunosuppression. A modification of Simonsen's original procedure (Ann. N.Y. Acad. Sci. 73:834, 1958) was employed. Large crops of spleen cells were obtained, without the generally employed manual teasing of spleens, by using Waring blendors with the cutting blades reversed. Two six-second blending periods buffeted the spleens (batches of 25 C57BL spleens in 25-ml saline) sufficiently to free the cells from the connective tissue. The latter was removed by filtration through several thicknesses of cheesecloth. Cell suspensions prepared in this fashion were standardized, by means of Levy-Hausser chamber counts, to contain 6×10^8 nucleated cells per ml. Groups of ten 16-18 gram C57BL×C3H mice were injected intraperitoneally with 1 ml of the donor cell suspension. Treatment, by the oral or subcutaneous route in 0.2 ml, was instituted 3 days prior to cell injection and continued daily for 13 days. Control animals received only cells and vehicle. The spleens were removed and weighed 10 days following cell injection. The results were expressed as mg spleen/gram body weight. Since the injection of syngeneic, i.e., C57BL×C3H, cells into the recipient mice produces a minor degree of splenomegaly, spleen weights of such animals were used to define 100% suppression of the GVH component in calculating percents of inhibition produced by the immunosuppressive compounds.

[1] = system: antibody (hemagglutinin) production against sheep red blood cells; assay: Mouse hemagglutinin assay, oral administration (antibody reduction); format: in vivo, mouse (male, random-bred, Swiss); conditions: Erythrocyte, nine daily doses, pooled sera of 5 mice, read-out: minimum effective dose (MED), lowest dose producing 75 percent or greater antibody reduction
Description: (§1) Groups of five 20-gram, male, random-bred, Swiss mice received intravenous injections of 5×10^7 sheep red blood cells. The cells for these injections were prepared from lamb's blood (collected in Alsever's solution) by washing three times with 0.85 percent saline and resuspending in 0.85 percent saline. Nine daily doses of each compound to be tested, solubilized in polyethylene glycol 400, were administered orally in 0.1 ml. doses, commencing three days prior to red blood cell injection. Several dose levels of each compound were employed, at 2-fold increments. A control group of mice, receiving a red blood cell injection and nine daily doses of vehicle instead of drug, was included. Six days after the antigen injections, the mice were bled by cardiac puncture and the sera from each 5-mouse group pooled. The serum pools, following complement inactivation, were assayed for hemagglutinin content by standard procedures, utilizing a mixture of serial 2-fold saline dilutions of the test sera with 0.5 percent sheep red blood cell suspensions in plastic depression trays. Following incubation of the trays for 3 hours at 37° C., the hemagglutination patterns were graded.

[2] = system: antibody (hemagglutinin) titer against sheep red blood cells; assay: Individual serum assay procedure (hemagglutinin titer); format: in vivo; conditions: Erythrocyte, ten daily doses, 10-mouse groups, read-out: Endpoint Dose (p <0.05), lowest dose significantly lowering antibody titer
Description: as §1, with “graded. […] The mice were bled as before, but the sera were titered individually rather than as a pool. Mean hemagglutinin values (log2)±S.E. were calculated for each 10-mouse group and p values (by Student's t Test), in comparison with the control group, were determined. […] The drugs were administered orally or subcutaneously in ten daily doses, commencing three days prior to red blood cell injection. Drugs were suspended in a vehicle composed of saline containing 0.125 percent methylcellulose and 0.2 percent nonionic emulsifying agent. Antibody (hemagglutinin) determinations were made seven days following a red blood cell injection.” for “graded.”

[3] = system: adjuvant-induced arthritis (uninjected hind paw swelling, bone damage); assay: Adjuvant-induced arthritis test in rats; format: in vivo, rat (male Lewis-Wistar); conditions: 30 mg/kg/day oral; for % inhibition (uninjected paw volume): printed under Day 18, formula in footnote drawing
[4] = Day 11, TB control 2.02 ± 0.037
[5] = Day 14, TB control 2.69 ± 0.106
[6] = Day 16, TB control 3.26 ± 0.202
[7] = Day 18, TB control 3.65 ± 0.227

COc1ccc2nc(NC(=O)Nc3ccccc3)sc2c1 [1-(6-methoxy-2-benzothiazolyl)-3-phenylurea, reference compound]
Percent Inhibition (GVH reaction; 12.5 mg/kg × 13, oral, illustrative calculation with Syn. Control 5.20): 74% | Mg Spleen/g Body Wt. ± S.E. (GVH reaction; 12.5 mg/kg × 13, oral, p<0.01 vs GVH control (11.55 ± 1.01), groups of 5 mice): 6.86 ± 0.80 mg spleen/g body wt

Brc1ccc(C2Nc3cccc4cccc(c34)N2)cc1 [2,3-dihydro-2-(p-bromophenyl)-1H-perimidine]
minimal effective dose [1]: 25 mg/kg

Brc1ccc(C2=Nc3cccc4cccc(c34)N2)cc1Br.Cl [2-(3,4-dibromophenyl)-1H-perimidine hydrochloride]
minimal effective dose [1]: 50 mg/kg

Cl.Clc1ccc(C2=Nc3cccc4cccc(c34)N2)cc1Cl [2-(3,4-dichlorophenyl)-1H-perimidine hydrochloride]
minimal effective dose ([2]; sc, subcutaneous): < 3.1 mg/kg | minimal effective dose ([2]; oral): < 3.1 mg/kg | minimal effective dose [1]: 12.5 mg/kg

Cl.Clc1ccc(C2=Nc3cccc4cccc(c34)N2)cc1Br [2-(3-bromo-4-chlorophenyl)-1H-perimidine hydrochloride]
minimal effective dose [1]: 50 mg/kg

Cl.Clc1cc(C2=Nc3cccc4cccc(c34)N2)ccc1Br [2-(4-bromo-3-chlorophenyl)-1H-perimidine hydrochloride]
minimal effective dose [1]: 50 mg/kg

Brc1cccc(C2=Nc3cccc4cccc(c34)N2)c1.Cl [2-(m-bromophenyl)-1H-perimidine hydrochloride]
minimal effective dose [1]: 100 mg/kg

Cl.FC(F)(F)c1cccc(C2=Nc3cccc4cccc(c34)N2)c1 [2-(m-trifluoromethylphenyl)-1H-perimidine hydrochloride]
minimal effective dose [1]: 100 mg/kg

Cl.FC(F)(F)C(F)(F)Oc1ccc(C2=Nc3cccc4cccc(c34)N2)cc1 [2-(p-PENTAFLUOROETHOXYPHENYL)-1H-PERIMIDINE HYDROCHLORIDE]
minimal effective dose [1]: 100 mg/kg

F.FC(F)(F)Oc1ccc(C2=Nc3cccc4cccc(c34)N2)cc1 [2-(p-TRIFLUOROMETHOXYPHENYL)-1H-PERIMIDINE HYDROFLUORIDE]
minimal effective dose ([2]; oral): 12.5 mg/kg | minimal effective dose [1]: < 100 mg/kg

Cl.FC(F)(F)c1ccc(C2=Nc3cccc4cccc(c34)N2)cc1 [2-(p-TRIFLUOROMETHYLPHENYL)-1H-PERIMIDINE HYDROCHLORIDE]
Uninjected Paw Volume ([3]; Day 9, TB control 1.94 ± 0.028): 1.93 ± 0.081 | Uninjected Paw Volume [3, 4]: 1.95 ± 0.079 | Uninjected Paw Volume [3, 5]: 2.13 ± 0.148 | Uninjected Paw Volume [3, 6]: 2.35 ± 0.233 | Uninjected Paw Volume [3, 7]: 2.53 ± 0.39 | Gross observation of X-ray photos, bone damage in injected and uninjected paws ([3]; day 18, bone damage very obvious in TB control): no bone damage | % inhibition (uninjected paw volume) [3]: 69% | minimal effective dose ([2]; sc, subcutaneous): < 1.6 mg/kg | minimal effective dose ([2]; oral): < 1.6 mg/kg | Percent Inhibition, GVH Series (GVH reaction; 1.6 mg/kg × 13, oral): 78% | Mg Spleen/g mouse weight (mean + S.E.) (GVH reaction; 1.6 mg/kg × 13, oral, p <0.05, control 8.64 ± 1.10): 5.66 ± 0.33 mg spleen/g mouse weight | Percent Inhibition, GVH Series (GVH reaction; 3.1 mg/kg × 13, oral): 96% | Mg Spleen/g mouse weight (mean + S.E.) (GVH reaction; 3.1 mg/kg × 13, oral, p <0.01, control 8.64 ± 1.10): 4.96 ± 0.31 mg spleen/g mouse weight | Percent Inhibition, GVH Series (GVH reaction; 6.2 mg/kg × 13, oral): 77% | Mg Spleen/g mouse weight (mean + S.E.) (GVH reaction; 6.2 mg/kg × 13, oral, p <0.05, control 8.64 ± 1.10): 5.67 ± 0.51 mg spleen/g mouse weight | Percent Inhibition, GVH Series (GVH reaction; 12.5 mg/kg × 13, oral): 53% | Mg Spleen/g mouse weight (mean + S.E.) (GVH reaction; 12.5 mg/kg × 13, oral, control 8.64 ± 1.10): 6.62 ± 1.17 mg spleen/g mouse weight | Percent Inhibition, GVH Series (GVH reaction; 25 mg/kg × 13, oral): 101% | Mg Spleen/g mouse weight (mean + S.E.) (GVH reaction; 25 mg/kg × 13, oral, p <0.005, control 8.64 ± 1.10): 4.75 ± 0.42 mg spleen/g mouse weight | minimal effective dose [1]: 6.25 mg/kg

Cl.FC(F)(F)Sc1ccc(C2=Nc3cccc4cccc(c34)N2)cc1 [2-(p-TRIFLUOROMETHYLTHIOPHENYL)-1H-PERIMIDINE HYDROCHLORIDE]
minimal effective dose ([2]; oral): 50 mg/kg | minimal effective dose [1]: < 100 mg/kg

Brc1ccc(C2=Nc3cccc4cccc(c34)N2)cc1.Cl [2-(p-bromophenyl)-1H-perimidine hydrochloride]
minimal effective dose ([2]; sc, subcutaneous): < 3.1 mg/kg | minimal effective dose ([2]; oral): 25 mg/kg | minimal effective dose [1]: 12.5 mg/kg

Brc1ccc(C2=Nc3cccc4cccc(c34)N2)cc1 [2-(p-bromophenyl)-1H-perimidine]
Percent Inhibition, GVH Series (GVH reaction; 3.1 mg/kg × 13, subcutaneous): 19% | Mg Spleen/g mouse weight (mean + S.E.) (GVH reaction; 3.1 mg/kg × 13, subcutaneous, control 8.84 ± 0.72): 8.08 ± 0.66 mg spleen/g mouse weight | Percent Inhibition, GVH Series (GVH reaction; 6.2 mg/kg × 13, subcutaneous): 66% | Mg Spleen/g mouse weight (mean + S.E.) (GVH reaction; 6.2 mg/kg × 13, subcutaneous, p <0.01, control 8.84 ± 0.72): 6.18 ± 0.39 mg spleen/g mouse weight | Percent Inhibition, GVH Series (GVH reaction; 12.5 mg/kg × 13, subcutaneous): 79% | Mg Spleen/g mouse weight (mean + S.E.) (GVH reaction; 12.5 mg/kg × 13, subcutaneous, p <0.005, control 8.84 ± 0.72): 5.64 ± 0.65 mg spleen/g mouse weight | Percent Inhibition, GVH Series (GVH reaction; 25 mg/kg × 13, subcutaneous): 84% | Mg Spleen/g mouse weight (mean + S.E.) (GVH reaction; 25 mg/kg × 13, subcutaneous, p <0.001, control 8.84 ± 0.72): 5.43 ± 0.41 mg spleen/g mouse weight | Percent Inhibition, GVH Series (GVH reaction; 50 mg/kg × 13, subcutaneous): 102% | Mg Spleen/g mouse weight (mean + S.E.) (GVH reaction; 50 mg/kg × 13, subcutaneous, p <0.001, control 8.84 ± 0.72): 4.70 ± 0.21 mg spleen/g mouse weight | minimal effective dose [1]: 25 mg/kg

Clc1ccc(C2=Nc3cccc4cccc(c34)N2)cc1 [2-(p-chlorophenyl)-1H-perimidine]
minimal effective dose [1]: 100 mg/kg

Cn1cnc([N+](=O)[O-])c1Sc1ncnc2nc[nH]c12 [Azathioprine, reference compound]
minimal effective dose [1]: 100 mg/kg

CC(C(=O)O)c1cccc(Oc2ccccc2)c1 (stereo not shown) [fenoprofen, reference compound]
Uninjected Paw Volume ([3]; Day 9, TB control 1.94 ± 0.028): 1.97 ± 0.023 | Uninjected Paw Volume [3, 4]: 2.11 ± 0.07 | Uninjected Paw Volume [3, 5]: 2.38 ± 0.099 | Uninjected Paw Volume [3, 6]: 2.7 ± 0.107 | Uninjected Paw Volume [3, 7]: 2.67 ± 0.128 | % inhibition (uninjected paw volume) [3]: 23%
